The term pEC50 denotes the EC50 on a negative log10 scale, so that one unit is a factor of ten.

pEC50: −log10 of the molar value.

Results on two compounds are retold here after patent publication US20210023030A1 (priority 2018, published 2021).

The test system of assay [1] is primary human intestinal organoids. It counts as cell-based. The settings on record: TNFα 40 ng/mL, 10 μM, 18 hours. How it is done: (§1) To measure the effect of (R)-3-HB on inflammation of primary human intestinal organoids, healthy large intestine samples of a donor were cultured for 8 weeks in vitro prior to experiments. Method as used in Hannan et al., Stem Cell Reports. Vol. 1, 293-306 Oct. 15, 2013.
1) To induce inflammation, organoids were treated with TNFα (40 ng/mL) alone or in combination with butyrate (10 μM), (R)-3-HB (10 μM), or butyrate and (R)-3-HB for 18 hours. Subsequently, cells were lysed and RNA was isolated for cDNA synthesis and measurement of mRNA expression levels of inflammation factors, NF-κB and TNFα, by qPCR.

For assay [2] the test system is unchanged. It counts as cell-based. How it is done:
as §1
2) To induce inflammation, organoids were treated with TNF-α (40 ng/mL) alone or in combination with (R)-3-HB (sodium salts at 10 μM) for 18 hours. Subsequently, cells were lysed and RNA was isolated for cDNA synthesis and mRNA expression levels of a panel of inflammation factors was measured by qPCR.

The test system is the same in assay [3]. It is filed as cell-based. The conditions noted are these: TNF-α 60 ng/mL, 24 hours. The procedure: 3) The effect of (R)-3-HB and the related SCFA butyrate on the inflammatory response exerted by primary human intestinal organoids upon co-incubation with TNF-α as inflammatory stimulus was measured. Primary human intestinal organoids were cultured for 8 weeks prior to experiments as described in Hannan et al. (2013) Stem Cell Reports.
To induce inflammation, organoids were treated with 60 ng/mL TNF-α alone or in combination with different concentrations of the sodium salts of (R)-3-HB or butyrate for 24 hours. Subsequently, cells were lysed and RNA was isolated using the RNeasy mini kit (Qiagen Ltd, Germany) for synthesis of cDNA. mRNA expression levels of IL-23 was measured by qPCR using the SensiMix SYBR low-ROX kit (Bioline, UK).
Values were normalized versus untreated control and graphs show the difference of mRNA levels measured in organoids treated with TNF-α alone (set as 0) and those treated with TNF-α and butyrate or (R)-3-HB.

For another assay, the target named is HCA2 receptor (gpr109A) (Mus musculus, UniProt Q9EP66). The conditions noted are these: read-out: EC50 of binding to HCA2 receptor; cited from earlier work.
Chain of HCA2 receptor (gpr109A) (Q9EP66 whole entry): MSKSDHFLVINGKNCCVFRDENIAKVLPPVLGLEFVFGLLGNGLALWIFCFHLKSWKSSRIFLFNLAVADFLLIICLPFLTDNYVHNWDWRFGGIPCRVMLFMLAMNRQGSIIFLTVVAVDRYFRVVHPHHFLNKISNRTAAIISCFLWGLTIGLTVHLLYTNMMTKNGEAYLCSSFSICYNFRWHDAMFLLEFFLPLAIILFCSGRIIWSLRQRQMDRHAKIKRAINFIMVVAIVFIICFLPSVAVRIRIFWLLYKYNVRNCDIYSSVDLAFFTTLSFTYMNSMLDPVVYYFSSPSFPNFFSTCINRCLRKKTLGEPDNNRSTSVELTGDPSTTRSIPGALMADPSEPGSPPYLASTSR
In assay [4] the target is hydroxy-carboxylic acid receptor 2 (HCA2, GPR109A) (Mus musculus, UniProt Q9EP66). The conditions noted are these: in vivo; cited from earlier work.
Chain of hydroxy-carboxylic acid receptor 2 (HCA2, GPR109A) (Q9EP66 whole entry): as above
The subject of the next assay is histone acetylation. The conditions noted are these: cited from earlier work.
A further assay has as its target NLRP3 inflammasome (Homo sapiens, UniProt Q96P20). The conditions noted are these: cited from earlier work.
Where [5] appears, read: TNF-α 40 ng/mL, sodium salt 10 μM, 18 hours.

Chain of NLRP3 inflammasome (Q96P20 whole entry): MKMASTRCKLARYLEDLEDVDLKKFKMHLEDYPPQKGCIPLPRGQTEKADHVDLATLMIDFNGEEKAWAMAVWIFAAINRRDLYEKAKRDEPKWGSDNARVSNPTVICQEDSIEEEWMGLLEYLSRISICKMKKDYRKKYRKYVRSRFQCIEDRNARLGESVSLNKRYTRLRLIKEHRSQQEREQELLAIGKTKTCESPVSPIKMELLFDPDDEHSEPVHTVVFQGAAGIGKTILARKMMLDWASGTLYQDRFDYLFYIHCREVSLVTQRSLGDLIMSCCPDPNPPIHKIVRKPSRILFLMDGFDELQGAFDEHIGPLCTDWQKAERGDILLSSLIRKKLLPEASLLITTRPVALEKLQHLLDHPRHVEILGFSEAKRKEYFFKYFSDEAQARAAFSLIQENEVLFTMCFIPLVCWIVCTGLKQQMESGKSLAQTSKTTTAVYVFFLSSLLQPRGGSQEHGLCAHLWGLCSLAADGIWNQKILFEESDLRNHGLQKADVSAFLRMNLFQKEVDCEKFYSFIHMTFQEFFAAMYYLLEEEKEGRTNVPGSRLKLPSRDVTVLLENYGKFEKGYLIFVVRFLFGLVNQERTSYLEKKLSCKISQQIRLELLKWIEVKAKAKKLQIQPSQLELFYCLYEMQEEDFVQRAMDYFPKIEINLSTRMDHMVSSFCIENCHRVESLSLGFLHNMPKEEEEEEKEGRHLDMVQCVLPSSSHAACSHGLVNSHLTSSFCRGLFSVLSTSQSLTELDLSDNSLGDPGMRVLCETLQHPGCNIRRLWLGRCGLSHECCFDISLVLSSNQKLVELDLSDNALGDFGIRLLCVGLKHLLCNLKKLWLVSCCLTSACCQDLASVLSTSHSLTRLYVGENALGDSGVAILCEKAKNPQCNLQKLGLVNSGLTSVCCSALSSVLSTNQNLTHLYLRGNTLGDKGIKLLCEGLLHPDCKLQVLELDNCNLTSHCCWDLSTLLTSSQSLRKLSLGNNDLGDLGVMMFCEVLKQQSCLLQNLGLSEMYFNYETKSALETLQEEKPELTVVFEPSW

For `C[C@@H](O)CC(=O)O` [(R)-3-HB, (R)-3-hydroxybutyrate], in assay [1], the “NF-κB mRNA expression” value was “decreased” and the “TNF-α mRNA expression” value is listed as “decreased”. In assay [2] (setting [5]), the “IL-1β mRNA expression vs TNF-α alone” value was “decreased”, the “IL-6 mRNA expression vs TNF-α alone” value is reported as “decreased”, the “IL-10 mRNA expression vs TNF-α alone” value is on record as “increased” and the “IL-23 mRNA expression vs TNF-α alone” value was “decreased”. For the same compound, in assay [2] (setting [5]), the “NF-κβ mRNA expression vs TNF-α alone” value is “decreased”, the “TGF-β1 mRNA expression vs TNF-α alone” value is reported as “increased” and the “TNF-α mRNA expression vs TNF-α alone” value is given as “decreased”. In assay [2] (data not shown), the “effect on pro-inflammatory regulators of IBD compared with butyrate” value was “greater reducing effect than butyrate” and the “effect on protective regulators of intestinal inflammation compared with butyrate” value is “greater inducing effect”. In addition, the “impact on IL-23 expression compared with butyrate” value in assay [3] (10-100 μM) is “greater reducing impact”. In assay [3] (sodium salt), the “concentrations effective at reducing expression of IL-23” value lay within 10 to 100 µM. Besides, the pEC50 on HCA2 receptor (gpr109A) is 3.50.
For `CC(O)CC(=O)O` (centres unmarked) [3-HB, 3-hydroxybutyric acid], in assay [4], the “concentration associated with neuroprotection” value is reported as 600-1,000 μM. The “concentration that increases histone acetylation in a dose dependent manner” value in the assay on histone acetylation is 1 to 2 mM. For the same compound, the “concentration that reduced NLRP3 inflammasome activity” value at NLRP3 inflammasome was 2 to 10 mM.
